These results are taken from PubChem BioAssay (NCI).

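Test compounds were applied to cells in 96-well plates for 48 hours at 5 doses. The concentration for 50% growth inhibition is given as GI50. At the TGI there is no net growth.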

Test systems include A549 NSCLC; HOP-62 NSCLC; MCF7 breast; NCI-H522 lung; SF-268 CNS; SF-295 CNS; SNB-19 CNS; U251 CNS; UACC-257 melanoma; MOLT-4 leukemia.
What all share (assay): DTP human tumour cell line panel, 48 h

Regarding `COC12C=C/C(=C(/C(=O)OCc3cncnc3)C(=O)CCCCCCCCC3(OC)C=C/C(=C(/C(=O)OCc4cncnc4)C(=O)CCCCCCCC1)O3)O2`, the GI50 (commonly the concentration giving 50% growth inhibition) in the test on A549 NSCLC was 0.848 µM; with HOP-62 NSCLC, 0.624 µM; in the test on MCF7 breast it was 0.209 µM; in the test on NCI-H522 lung it was 0.137 µM; in the test on SF-268 CNS, 0.312 µM; in the test on SF-295 CNS, 0.326 µM. Besides, the results for the GI50 in the test on SNB-19 CNS, with U251 CNS and in the test on UACC-257 melanoma were 0.458 µM, 0.212 µM and 0.937 µM, respectively. In addition, the TGI (in general, the concentration at which net growth stops) in the test on A549 NSCLC was determined as 2.24 µM; in the test on HOP-62 NSCLC, 2.97 µM; with MCF7 breast it was 2.32 µM; in the test with NCI-H522 lung, 0.408 µM; in the test with SF-268 CNS it was 4 µM; in the test with SF-295 CNS it was 1.74 µM. In addition, the TGI with SNB-19 CNS was above 50 µM; in the test with U251 CNS, 1.06 µM; in the test with UACC-257 melanoma, 2.94 µM.
Regarding `COc1ccc(/C=C/C(=O)c2cc(OC)c(OC)c(OC)c2)cc1OCc1cn(Cc2ccc(F)cc2)nn1`, the GI50 in the test on A549 NSCLC was 2.63 µM; with HOP-62 NSCLC, 2.14 µM; with MCF7 breast, 2.43 µM; in the test on MOLT-4 leukemia, 3.97 µM; in the test with NCI-H522 lung, 1.74 µM; in the test on SF-268 CNS, 2.98 µM. In addition, the GI50 in the test with SNB-19 CNS was 4.42 µM; in the test with U251 CNS, 2.94 µM; in the test on UACC-257 melanoma, 4.9 µM. The TGI with A549 NSCLC is 9.13 µM; with HOP-62 NSCLC, 6.18 µM; in the test on MCF7 breast, above 100 µM; with MOLT-4 leukemia, 68.5 µM; with NCI-H522 lung, 5.22 µM; in the test with SF-268 CNS, above 100 µM. Moreover, the figures for the TGI in the test on SNB-19 CNS, in the test with U251 CNS and in the test with UACC-257 melanoma were above 100 µM, 19.4 µM and above 100 µM, respectively.
For the compound `CCOC(=O)c1c(C)nc2c(c1N)CC(=O)N2Cc1ccc(OC)cc1`, the GI50 in the test with HOP-62 NSCLC was 2.1 µM; in the test on MCF7 breast, above 100 µM; with MOLT-4 leukemia, 81.3 µM; in the test on NCI-H522 lung, above 100 µM; in the test with SF-268 CNS, 4.29 µM; in the test with SF-295 CNS, 2.53 µM. In addition, the figures for the GI50 in the test on SNB-19 CNS and in the test on U251 CNS were 4.87 µM and 4.14 µM, respectively. Moreover, the TGI in the test with HOP-62 NSCLC was 5.97 µM; in the test with MCF7 breast, above 100 µM; in the test on MOLT-4 leukemia, above 100 µM; with NCI-H522 lung, above 100 µM; in the test on SF-268 CNS it was above 100 µM; with SF-295 CNS it was 7.37 µM. Besides, the total growth inhibition concentration (TGI) in the test with SNB-19 CNS and in the test on U251 CNS was above 100 µM each time.
Consider `NS(=O)(=O)c1ccc(-n2nc(-c3ccc(Cl)cc3)cc2-c2cc(O)ccc2O)cc1`, for which the GI50 in the test with A549 NSCLC is 12.2 µM; with MCF7 breast it was 5.97 µM; with MOLT-4 leukemia, 5.15 µM; in the test on NCI-H522 lung, 2.58 µM; in the test on SF-268 CNS, 10.5 µM; in the test on SF-295 CNS, 17.6 µM. For the same compound, in the test on UACC-257 melanoma, the GI50 is 11.1 µM. Also, the TGI was 30.4 µM in the test on A549 NSCLC; above 100 µM in the test with MCF7 breast; above 100 µM with MOLT-4 leukemia; 6.71 µM in the test on NCI-H522 lung; 26.2 µM with SF-268 CNS; 33.5 µM with SF-295 CNS. The same compound registered a TGI in the test on UACC-257 melanoma of 25.6 µM.
Consider `Cc1cccc(/C=C/c2c(C(=O)/C=C/c3ccccc3)c(C)nc3ccccc23)c1`, for which the GI50 in the test with A549 NSCLC is 1.91 µM; in the test on HOP-62 NSCLC, 1.75 µM; in the test on MCF7 breast, 0.565 µM; in the test on MOLT-4 leukemia, 0.508 µM; in the test with SF-295 CNS, 1.89 µM; with SNB-19 CNS, 1.67 µM. The results for the GI50 in the test with U251 CNS and with UACC-257 melanoma were 1.47 µM and 1.65 µM, respectively. Also, the TGI in the test on A549 NSCLC came out at 4.76 µM; with HOP-62 NSCLC it was 3.48 µM; with MCF7 breast it was 4.22 µM; in the test on MOLT-4 leukemia, 3.72 µM; with SF-295 CNS it was 3.73 µM; with SNB-19 CNS, 3.04 µM. Besides, the TGI in the test on U251 CNS came to 2.85 µM; with UACC-257 melanoma, 3.28 µM.
`O=C(c1ccccc1)c1ccccc1-c1ccccc1`: the GI50 with A549 NSCLC is 4.87 µM; in the test with HOP-62 NSCLC it was 5.38 µM; in the test with MCF7 breast it was 2.97 µM; in the test with NCI-H522 lung it was 0.74 µM; in the test with SF-268 CNS, 6.55 µM; in the test with SF-295 CNS, 1.85 µM. Moreover, the GI50 in the test with SNB-19 CNS is 5.45 µM; in the test on U251 CNS, 4.21 µM; with UACC-257 melanoma, 14.5 µM. Also, the TGI is above 100 µM in the test on A549 NSCLC; above 100 µM with HOP-62 NSCLC; above 100 µM in the test with MCF7 breast; 4.06 µM with NCI-H522 lung; above 100 µM in the test on SF-268 CNS; 29 µM in the test on SF-295 CNS. Also, the results for the TGI with SNB-19 CNS, in the test with U251 CNS and in the test on UACC-257 melanoma were above 100 µM, 46.2 µM and above 100 µM, respectively.
In the case of `COc1ccc(C(=S)N2CCN(c3cccc(C)c3)CC2)cc1OC`, the GI50 was 6.37 µM with A549 NSCLC; 5.53 µM with HOP-62 NSCLC; 3.06 µM in the test on MCF7 breast; 6.18 µM in the test with SF-268 CNS; 4.26 µM with SF-295 CNS; 6.61 µM in the test with SNB-19 CNS. Further, the GI50 was 5.8 µM in the test with U251 CNS and 55.4 µM in the test with UACC-257 melanoma. The TGI in the test on A549 NSCLC was above 100 µM; with HOP-62 NSCLC it was 29.4 µM; in the test on MCF7 breast, above 100 µM; in the test with SF-268 CNS, 86.8 µM; in the test with SF-295 CNS, 44.8 µM; with SNB-19 CNS it was above 100 µM. In addition, the TGI in the test with U251 CNS and with UACC-257 melanoma was above 100 µM each time.
Turning to `CC1(C)C2CCC13C(=O)C1OC3(C2)C2C(=O)c3cc4ccccc4cc3C(=O)C12` (stereo not drawn), the GI50 in the test with A549 NSCLC is 26.2 µM; in the test on HOP-62 NSCLC, 7.64 µM; in the test on MCF7 breast it was 6.17 µM; in the test with MOLT-4 leukemia, 1.76 µM; in the test with NCI-H522 lung it was 23.1 µM; in the test on SF-268 CNS, 5.29 µM. In addition, the results for the GI50 in the test with SNB-19 CNS, with U251 CNS and in the test with UACC-257 melanoma were 5.57 µM, 15.1 µM and 20.8 µM, respectively. Also, the total growth inhibition concentration (TGI) was 76.3 µM in the test with A549 NSCLC; 45.3 µM in the test with HOP-62 NSCLC; above 100 µM with MCF7 breast; 19.2 µM in the test with MOLT-4 leukemia; above 100 µM in the test with NCI-H522 lung; 82.4 µM in the test with SF-268 CNS. The results for the TGI in the test with SNB-19 CNS, in the test on U251 CNS and with UACC-257 melanoma were 46.4 µM, 34.4 µM and 64.8 µM, respectively.
As for `O=C(Nc1ccc([As](=O)(O)O)cc1)Nc1cccc(Cl)c1Cl`, the TGI in the test on A549 NSCLC, in the test with HOP-62 NSCLC, in the test on MCF7 breast, in the test with NCI-H522 lung, in the test with SF-268 CNS and in the test with SF-295 CNS was above 100 µM throughout. Also, the TGI in the test with SNB-19 CNS, with U251 CNS and in the test with UACC-257 melanoma was above 100 µM in each case.
